Article PMC5515969, “Effects of 31 FDA approved small-molecule kinase inhibitors on isolated rat liver mitochondria” (Archives of Toxicology, 2016)
Read-outs that look alike come from different tables or passages of the source.

Assays:
[1] = set-up: method as in product labeling; settings: ref product labeling, cited from earlier work
[2] = system: RCC V; assay: RCC V activity in submitochondrial particles; format: biochemical, rat; settings: for RCC activity V: 15 min, DMSO-treated = 100; on RCC V at 5XCmax: key: 0 indicates that the drug had no effects (negative)
Method: (§1) KIs were incubated with submitochondrial particles (1 mg/ml) for 15 min and then RCC I–V activities measured. […] The activities of DMSO-treated samples (controls) were set as 1. […] The difference between the activity from rotenone-containing buffer and rotenone-absent buffer was considered as RCC I activity. […] For measuring RCC I/V and II activity, the changes in absorbance at 340 and 600 nm, respectively, were determined every 1 min for 6 min. For measuring RCC III and RCC IV, the changes in absorbance at 550 nm were measured every 10 s for 2 min.

[3] = system: RCC IV; assay: RCC IV activity in submitochondrial particles; format: biochemical, rat; set-up: key to RCC IV at 50XCmax / RCC IV at 100XCmax: activity relative to DMSO-treated controls (control set as 1 = 100%); settings: for RCC activity IV: 15 min, DMSO-treated = 100
Method: as §1

[4] = system: isolated rat liver mitochondria; assay: Mitochondrial ROS production (CM-H2DCFDA)
[5] = system: isolated rat liver mitochondria; assay: Mitochondrial inner membrane potential (MMP), Rhodamine 123; format: biochemical; settings: difference in signal between KI and DMSO treated samples at the end of experiments
Text: Fig. 3 KI effects on mitochondrial inner membrane potential (MMP). […] In a, c, data are means and standard derivations from three separate experiments. *p < 0.05 as compared to DMSO-treated samples at the end of experiments. In b, data are means of two independent experiments

[6] = system: RCC III; assay: RCC III activity in submitochondrial particles; format: biochemical, rat; set-up: key to RCC III at 100XCmax: activity relative to DMSO-treated controls (control set as 1 = 100%); settings: for RCC activity III: 15 min, DMSO-treated = 100
Method: as §1

[7] = system: isolated rat liver mitochondria; settings: positive control alamethicin treated samples
[8] = cited from earlier work
[9] = system: isolated rat liver mitochondria; assay: Mitochondrial swelling (absorbance at 535 nm); format: biochemical; on Swelling 5XCmax: key: 0 indicates that the drug had no effects (negative)
[10] = molecular target: T1, RCC II (Rattus norvegicus, UniProt P21913+Q641Z9+Q6PCT8+Q920L2); assay: RCC II activity in submitochondrial particles; format: biochemical; set-up: key: activity relative to DMSO-treated controls (control set as 1 = 100%); settings: relative to DMSO treated samples
T1 construct: Submitochondrial particles were prepared by subjecting the intact mitochondria to three successive freeze–thaw cycles; from tissue; host or cells: rat liver mitochondria, used as submitochondrial particles
Method: as §1

T1 sequence (Q920L2 35-656): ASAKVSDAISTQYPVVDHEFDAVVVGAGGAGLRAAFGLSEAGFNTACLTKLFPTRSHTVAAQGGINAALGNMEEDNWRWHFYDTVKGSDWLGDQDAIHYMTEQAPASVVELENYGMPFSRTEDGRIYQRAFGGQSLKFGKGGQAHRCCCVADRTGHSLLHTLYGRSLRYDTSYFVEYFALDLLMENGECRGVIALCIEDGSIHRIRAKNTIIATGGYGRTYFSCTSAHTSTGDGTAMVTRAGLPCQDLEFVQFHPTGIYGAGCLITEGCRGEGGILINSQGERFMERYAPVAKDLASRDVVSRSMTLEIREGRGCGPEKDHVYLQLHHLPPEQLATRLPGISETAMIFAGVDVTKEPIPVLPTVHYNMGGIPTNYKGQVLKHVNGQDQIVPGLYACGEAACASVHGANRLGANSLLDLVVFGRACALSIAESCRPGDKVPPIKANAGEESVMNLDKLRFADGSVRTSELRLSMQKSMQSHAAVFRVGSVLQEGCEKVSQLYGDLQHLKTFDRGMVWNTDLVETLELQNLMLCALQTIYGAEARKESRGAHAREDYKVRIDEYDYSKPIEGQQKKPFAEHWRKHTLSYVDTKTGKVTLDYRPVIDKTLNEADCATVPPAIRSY
T1 sequence (P21913 31-282): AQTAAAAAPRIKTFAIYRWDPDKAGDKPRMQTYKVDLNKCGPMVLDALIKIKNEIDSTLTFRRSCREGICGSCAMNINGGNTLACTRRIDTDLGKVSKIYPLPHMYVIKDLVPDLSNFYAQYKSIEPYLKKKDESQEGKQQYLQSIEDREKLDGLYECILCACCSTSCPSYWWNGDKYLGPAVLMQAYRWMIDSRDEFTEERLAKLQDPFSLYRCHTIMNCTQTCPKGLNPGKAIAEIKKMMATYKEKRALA
T1 sequence (Q641Z9 1-169): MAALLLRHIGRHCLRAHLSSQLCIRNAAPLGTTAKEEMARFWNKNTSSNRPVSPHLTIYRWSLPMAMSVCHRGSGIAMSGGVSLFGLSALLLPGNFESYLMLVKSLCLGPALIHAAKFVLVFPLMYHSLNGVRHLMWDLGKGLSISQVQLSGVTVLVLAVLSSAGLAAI
T1 sequence (Q6PCT8 57-159): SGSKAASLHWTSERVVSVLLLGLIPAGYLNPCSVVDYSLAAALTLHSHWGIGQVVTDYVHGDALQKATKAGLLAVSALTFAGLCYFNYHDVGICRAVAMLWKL

C[C@@H](Oc1cc(-c2cnn(C3CCNCC3)c2)cnc1N)c1c(Cl)ccc(F)c1Cl [Crizotinib]
Labeling for cardiotoxicity ([1]; BBW: black box warning, W&P: Warnings and Precautions): W&P: QT Interval Prolongation; Bradycardia | Potential for cardiotoxicity (based on labeling) [1]: 1 | RCC V at 5XCmax ([2]; 5XCmax, relative to DMSO treated samples): 0 | RCC activity V ([2]; 20-fold Cmax): 95.77 ± 7.64 % of control | RCC activity V ([2]; 30-fold Cmax): 98.65 ± 2.98 % of control | RCC activity V ([2]; 50-fold Cmax): 91.95 ± 5.63 % of control | RCC V at 50XCmax ([2]; 50XCmax, relative to DMSO treated samples): 0 | RCC activity IV ([3]; 20-fold Cmax): 94.03 ± 9.67 % of control | RCC activity IV ([3]; 30-fold Cmax): 96.65 ± 4.14 % of control | RCC activity IV ([3]; 50-fold Cmax): 103.77 ± 5.67 % of control | RCC IV at 50XCmax ([3]; 50XCmax, relative to DMSO treated samples, in %): 0 | RCC activity IV ([3]; 100-fold Cmax): 96.60 ± 8.40 % of control | ROS measured by CM-H2DCFDA at 1XCmax ([4]; 1XCmax, DMSO treated samples set as 1): 0 | ROS measured by CM-H2DCFDA at 2.5XCmax ([4]; 2.5XCmax, DMSO treated samples set as 1): 0 | ROS measured by CM-H2DCFDA at 5XCmax ([4]; 5XCmax, DMSO treated samples set as 1): 0 | ROS measured by CM-H2DCFDA at 10XCmax ([4]; 10XCmax, DMSO treated samples set as 1): 0 | ROS measured by CM-H2DCFDA at 20XCmax ([4]; 20XCmax, DMSO treated samples set as 1): 1.46±0.08 | ROS measured by CM-H2DCFDA at 30XCmax ([4]; 30XCmax, DMSO treated samples set as 1): 1.75±0.32 | ROS measured by CM-H2DCFDA at 50XCmax ([4]; 50XCmax, DMSO treated samples set as 1): 2.06±0.27 | ROS measured by CM-H2DCFDA at 100XCmax ([4]; 100XCmax, DMSO treated samples set as 1): 2.74±0.18 | effect on ROS production ([4]; highest tested concentrations): significantly ROS production | MMP measured by Rhodamine 123 at 1XCmax ([5]; 1XCmax): 0 | MMP measured by Rhodamine 123 at 2.5XCmax ([5]; 2.5XCmax): 0 | MMP measured by Rhodamine 123 at 5XCmax ([5]; 5XCmax): 0 | MMP measured by Rhodamine 123 at 10XCmax ([5]; 10XCmax): 0 | MMP measured by Rhodamine 123 at 20XCmax ([5]; 20XCmax): 0 | MMP measured by Rhodamine 123 at 30XCmax ([5]; 30XCmax): 0 | MMP measured by Rhodamine 123 at 50XCmax ([5]; 50XCmax): 0 | MMP measured by Rhodamine 123 at 100XCmax ([5]; 100XCmax): 0 | RCC activity III ([6]; 20-fold Cmax): 99.67 ± 8.65 % of control | RCC activity III ([6]; 30-fold Cmax): 106.26 ± 5.79 % of control | RCC activity III ([6]; 50-fold Cmax): 98.02 ± 7.16 % of control | RCC activity III ([6]; 100-fold Cmax): 103.28 ± 2.85 % of control | RCC III at 100XCmax ([6]; 100XCmax, relative to DMSO treated samples): 0 | Cytochrome c release 1XCmax ([7]; 1XCmax): 0 | Cytochrome c release 2.5XCmax ([7]; 2.5XCmax): 0 | Cytochrome c release 5XCmax ([7]; 5XCmax): 0 | Cytochrome c release 10XCmax ([7]; 10XCmax): 0 | Cytochrome c release 20XCmax ([7]; 20XCmax): 0 | Cytochrome c release 30XCmax ([7]; 30XCmax): 0 | Cytochrome c release 50XCmax ([7]; 50XCmax): 12.29±1.27 percentage of the positive control group | Cytochrome c release 100XCmax ([7]; 100XCmax): 24.66±1.67 percentage of the positive control group | DILI potential (based on labeling) ([8]; 1 = DILI positive, 0 = negative, ref product labeling): 1 | Labeling for DILI ([8]; BBW: black box warning, W&P: Warnings and Precautions, ref product labeling): W&P: fatal DILI | labeling for DILI ([8]; W&P warnings and precautions, BBW black box warnings, ref FDA product labeling): W&P: fatal DILI | DILI potential (based on labeling) ([8]; ref FDA product labeling): 1 | Swelling 1XCmax ([9]; 1XCmax, difference in signal between KI and DMSO treated samples at the end of experiments): 0 | Swelling 2.5XCmax ([9]; 2.5XCmax, difference in signal between KI and DMSO treated samples at the end of experiments): 0 | Swelling 5XCmax ([9]; 5XCmax, difference in signal between KI and DMSO treated samples at the end of experiments): 0 | Swelling 10XCmax ([9]; 10XCmax, difference in signal between KI and DMSO treated samples at the end of experiments): 0 | Swelling 20XCmax ([9]; 20XCmax, difference in signal between KI and DMSO treated samples at the end of experiments): 0 | Swelling 30XCmax ([9]; 30XCmax, difference in signal between KI and DMSO treated samples at the end of experiments): 0 | Swelling 50XCmax ([9]; 50XCmax, difference in signal between KI and DMSO treated samples at the end of experiments): 0 | Swelling 100XCmax ([9]; 100XCmax, difference in signal between KI and DMSO treated samples at the end of experiments): 0.19±0.03 | effect on mitochondrial swelling ([9]; up to 100-fold Cmax or highest testable concentration, 25 µM calcium chloride): significant mitochondrial swelling | RCC II at 1.0XCmax ([10]; 1.0XCmax): 0 | RCC II at 2.5XCmax ([10]; 2.5XCmax): 0 | RCC II at 5XCmax ([10]; 5XCmax): 0 | RCC II at 10XCmax ([10]; 10XCmax): 0 | RCC II at 20XCmax ([10]; 20XCmax): 0 | RCC II at 30XCmax ([10]; 30XCmax): 0 | RCC II at 50XCmax ([10]; 50XCmax): 0 | RCC II at 100XCmax ([10]; 100XCmax): 0
